Source: paper PMC9822072, “Synthesis and Structure–Activity Relationship of 2,6-Disubstituted Thiosemicarbazone Derivatives of Pyridine as Potential Antituberculosis Agents” (Materials, 2023)
≈ marks a conversion by molar mass, not a printed value. Like-named read-outs stand apart in the source and are kept apart here.

Columns and labels:
[1] = tested on: Bacillus cereus ATCC 10876; test: Antibacterial microdilution broth method; format: cell-based
Protocol: (§1) The antibacterial and antifungal activities of compounds 4–9 were screened by the microdilution broth method using Mueller–Hinton broth for the growth of bacteria and Mueller–Hinton broth with 2% glucose for the growth of fungi. The antimicrobial assays were carried out following a previous study. The MICs of the aforementioned derivatives were evaluated for the panel of reference microorganisms from the ATCC (American Type Culture Collection), including Gram-positive bacteria (Staphylococcus aureus ATCC 25923, Staphylococcus epidermidis ATCC 12228, Micrococcus luteus ATCC 10240, Bacillus subtilis ATCC 6633, and Bacillus cereus ATCC 10876), Gram-negative bacteria (Escherichia coli ATCC 25922, Proteus mirabilis ATCC 12453, Klebsiella pneumoniae ATCC 13883, and Pseudomonas aeruginosa ATCC 9027), and fungi (Candida albicans ATCC 102231 and Candida parapsilosis ATCC 22019) (LGC Standards, Teddington, Middlesex, UK). Vancomycin (VAN), ciprofloxacin (CIP), and fluconazole (FCZ) were used as standard drugs for comparison. Each experiment was performed in triplicate.

[2] = tested on: Bacillus subtilis ATCC 6633; test: Antibacterial microdilution broth method; format: cell-based
Protocol: as §1

[3] = tested on: Micrococcus luteus ATCC 10240; test: Antibacterial microdilution broth method; format: cell-based
Protocol: as §1

[4] = tested on: Staphylococcus aureus ATCC 25923; test: Antibacterial microdilution broth method; format: cell-based; conditions: for MIC: Staphylococcus aureus
Protocol: as §1

[5] = tested on: Staphylococcus epidermidis ATCC 12228; test: Antibacterial microdilution broth method; format: cell-based; conditions: for MIC: Staphylococcus epidermidis
Protocol: as §1

[6] = tested on: M. tuberculosis H37Rv (standard strain); test: Tuberculostatic activity, twofold serial microdilution with Alamar Blue; format: cell-based, Mycobacterium tuberculosis; conditions: 21 days at 37 °C; for MIC: Mycobacterium tuberculosis, H37RV, 504 h
[7] = tested on: Escherichia coli ATCC 25922; test: Antibacterial microdilution broth method; format: cell-based
Protocol: as §1

[8] = tested on: Klebsiella pneumoniae ATCC 13883; test: Antibacterial microdilution broth method; format: cell-based
Protocol: as §1

[9] = tested on: Proteus mirabilis ATCC 12453; test: Antibacterial microdilution broth method; format: cell-based
Protocol: as §1

[10] = tested on: Pseudomonas aeruginosa ATCC 9027; test: Antibacterial microdilution broth method; format: cell-based
Protocol: as §1

[11] = tested on: Candida albicans ATCC 102231; test: Antifungal microdilution broth method; format: cell-based; conditions: ATCC102231, Mueller–Hinton broth with 2% glucose, read-out: MIC C. albicans ATCC 102231
Protocol: as §1

[12] = tested on: Candida parapsilosis ATCC 22019; test: Antifungal microdilution broth method; format: cell-based; conditions: Lodderomyces parapsilosis, ATCC22019; Mueller–Hinton broth with 2% glucose; read-out: MIC C. parapsilosis ATCC 22019
Protocol: as §1

[13] = tested on: HaCaT cells; test: Cytotoxic activity, MTT method; format: cell-based; conditions: Homo sapiens, 72 h, 3 days of incubation
[14] = tested on: HaCaT cells; test: Cytotoxic activity, sulforhodamine B method; conditions: for IC50: Homo sapiens, 72 h, read-out: IC50-HaCaT SULF; for cytotoxicity against noncancer cells (in words): MTT and sulforhodamine B methods together
[15] = tested on: Gram-positive bacteria; test: Antibacterial microdilution broth method, summary in text; format: cell-based; conditions: read-out: MIC Gram-positive bacteria
Protocol: as §1

[16] = tested on: Mycobacterium strains; design: method as in PMID 32061963, PMID 36013649; conditions: cited from earlier work
[17] = tested on: other pathogenic microorganisms; design: method as in PMID 32061963, PMID 36013649; conditions: cited from earlier work
[18] = ATCC10876, Mueller–Hinton broth, read-out: MIC B. cereus ATCC 10876
[19] = ATCC6633, Mueller–Hinton broth, read-out: MIC B. subtilis ATCC 6633
[20] = ATCC10240, Mueller–Hinton broth, read-out: MIC M. luteus ATCC 10240
[21] = ATCC25923, Mueller–Hinton broth, read-out: MIC S. aureus ATCC 25923
[22] = ATCC12228, Mueller–Hinton broth, read-out: MIC S. epidermidis ATCC 12228
[23] = ATCC25922, Mueller–Hinton broth, read-out: MIC E. coli ATCC 25922
[24] = ATCC13883, Mueller–Hinton broth, read-out: MIC K. pneumoniae ATCC 13883
[25] = ATCC12453, Mueller–Hinton broth, read-out: MIC P. mirabilis ATCC 12453
[26] = ATCC9027, Mueller–Hinton broth, read-out: MIC P. aeruginosa ATCC 9027

SMILES	MIC [1, 18] [µg/mL]	MIC [2, 19] [µg/mL]	MIC [3, 20] [µg/mL]	MIC [4, 21] [µg/mL]	MIC [5, 22] [µg/mL]	MIC [6] [µg/mL]	MIC [7, 23] [µg/mL]	MIC [8, 24] [µg/mL]	MIC [9, 25] [µg/mL]	MIC [10, 26] [µg/mL]	MIC [11] [µg/mL]	MIC [12] [µg/mL]	IC50 [13] [µg/mL]	melting point [°C]	IC50 [14] [µg/mL]	cytotoxicity against noncancer cells (in words) [14]	other results
O=C(O)c1cn(C2CC2)c2cc(N3CCNCC3)c(F)cc2c1=O [CIP, ciprofloxacin, reference compound]	0.12 (≈ 0.362 µM)	0.03 (≈ 0.0905 µM)	0.98 (≈ 2.96 µM)	0.49 (≈ 1.48 µM)	0.49 (≈ 1.48 µM)												
NC(=NNC(=S)N1CCOCC1)c1cccc(N2CCCC2)n1 [Compound 4, N’-(Morpholine-4-Carbonothioyl)-6-(Pyrrolidin-1-Yl)Picolinohydrazonamide]	7.8 (≈ 23.3 µM)	7.8 (≈ 23.3 µM)	7.8 (≈ 23.3 µM)	3.9 (≈ 11.7 µM)	1.95 (≈ 5.83 µM)	16 (≈ 47.8 µM)	> 1000	> 1000	> 1000	> 1000	250 (≈ 747 µM)	> 1000	> 50	180 to 182	> 50	no cytotoxicity	
NC(=NNC(=S)N1CCCC1)c1cccc(N2CCCC2)n1 [Compound 5, 6-(Pyrrolidin-1-Yl)-N’-(Pyrrolidine-1-Carbonothioyl)Picolinohydrazonamide]	7.8 (≈ 24.5 µM)	0.49 (≈ 1.54 µM)	0.49 (≈ 1.54 µM)	0.49 (≈ 1.54 µM)	0.49 (≈ 1.54 µM)	2 (≈ 6.28 µM)	> 1000	> 1000	> 1000	> 1000	250 (≈ 785 µM)	1000 (≈ 3140 µM)	> 50	200 to 201	> 50	no cytotoxicity	MIC [15]: 0.49 µg/mL (≈ 1.54 µM)
NC(=NNC(=S)N1CCOCC1)c1cccc(N2CCCCC2)n1 [Compound 6, N’-(Morpholine-4-Carbonothioyl)-6-(Piperidin-1-Yl)Picolinohydrazonamide]	7.8 (≈ 22.4 µM)	7.8 (≈ 22.4 µM)	0.98 (≈ 2.81 µM)	1.95 (≈ 5.6 µM)	0.98 (≈ 2.81 µM)	8 (≈ 23 µM)	> 1000	> 1000	> 1000	> 1000	1000 (≈ 2870 µM)	1000 (≈ 2870 µM)	9.49 (≈ 27.2 µM)	177 to 178	> 50	inhibited cell metabolic activity while maintaining cell viability	
NC(=NNC(=S)N1CCCC1)c1cccc(N2CCCCC2)n1 [Compound 7, 6-(Piperidin-1-Yl)-N’-(Pyrrolidine-1-Carbonothioyl)Picolinohydrazonamide]	1.95 (≈ 5.87 µM)	1.95 (≈ 5.87 µM)	1.95 (≈ 5.87 µM)	0.49 (≈ 1.47 µM)	0.49 (≈ 1.47 µM)	2 (≈ 6.02 µM)	> 1000	> 1000	> 1000	> 1000	15.6 (≈ 46.9 µM)	7.8 (≈ 23.5 µM)	> 50	166 to 168	> 50	no cytotoxicity	MIC H37Rv [6]: 2 µg/mL (≈ 6.02 µM); MIC S. aureus ATCC 25923 ([4]; Mueller–Hinton broth): 0.49 µg/mL (≈ 1.47 µM); MIC S. epidermidis ATCC 12228 ([5]; Mueller–Hinton broth): 0.49 µg/mL (≈ 1.47 µM); MIC [15]: 0.49 µg/mL (≈ 1.47 µM)
NC(=NNC(=S)N1CCOCC1)c1cccc(Oc2ccccc2)n1 [Compound 8, N’-(Morpholine-4-Carbonothioyl)-6-Phenoxypicolinohydrazonamide]	> 1000	> 1000	125 (≈ 350 µM)	250 (≈ 699 µM)	31.3 (≈ 87.6 µM)	8 (≈ 22.4 µM)	> 1000	> 1000	> 1000	> 1000	> 1000	> 1000	0.57 (≈ 1.59 µM)	131 to 134	50 (≈ 140 µM)	inhibited cell metabolic activity while maintaining cell viability	
NC(=NNC(=S)N1CCCC1)c1cccc(Oc2ccccc2)n1 [Compound 9, 6-Phenoxy-N’-(Pyrrolidine-1-Carbonothioyl)Picolinohydrazonamide]	3.9 (≈ 11.4 µM)	0.49 (≈ 1.44 µM)	0.49 (≈ 1.44 µM)	0.98 (≈ 2.87 µM)	0.49 (≈ 1.44 µM)	8 (≈ 23.4 µM)	1000 (≈ 2930 µM)	> 1000	> 1000	1000 (≈ 2930 µM)	1000 (≈ 2930 µM)	1000 (≈ 2930 µM)	0.06 (≈ 0.176 µM)	170 to 173	1.31 (≈ 3.84 µM)	showed the same while losing cell viability	
OC(Cn1cncn1)(Cn1cncn1)c1ccc(F)cc1F [FCZ, fluconazole, reference compound]											0.98 (≈ 3.2 µM)	1.95 (≈ 6.37 µM)					
NNC(=O)c1ccncc1 [INH, isoniazid, reference compound]						0.125 (≈ 0.911 µM)											
N/C(=N\NC(=S)N1CCOCC1)c1cc(-c2ccccc2)ccn1 [MKG-1b]																	MIC toward Mycobacterium strains [16]: 3.1 µg/mL (≈ 9.08 µM); MIC other pathogenic microorganisms [17]: 0.98 to 500 µg/mL
CN[C@H](CC(C)C)C(=O)N[C@H]1C(=O)N[C@@H](CC(N)=O)C(=O)N[C@H]2C(=O)N[C@H]3C(=O)N[C@H](C(=O)N[C@H](C(=O)O)c4cc(O)cc(O)c4-c4cc3ccc4O)[C@H](O)c3ccc(c(Cl)c3)Oc3cc2cc(c3O[C@@H]2O[C@H](CO)[C@@H](O)[C@H](O)[C@H]2O[C@H]2C[C@](C)(N)[C@H](O)[C@H](C)O2)Oc2ccc(cc2Cl)[C@H]1O [VAN, Vancomycin, reference compound]																	MIC ([1]; ATCC10876, read-out: MIC B. cereus ATCC 10876): 0.98 µg/mL (≈ 0.676 µM); MIC ([2]; ATCC6633, read-out: MIC B. subtilis ATCC 6633): 0.24 µg/mL (≈ 0.166 µM); MIC ([7]; ATCC25922, read-out: MIC E. coli ATCC 25922): 0.004 µg/mL (≈ 0.00276 µM); MIC ([8]; ATCC13883, read-out: MIC K. pneumoniae ATCC 13883): 0.06 µg/mL (≈ 0.0414 µM); MIC ([3]; ATCC10240, read-out: MIC M. luteus ATCC 10240): 0.12 µg/mL (≈ 0.0828 µM); MIC ([9]; ATCC12453, read-out: MIC P. mirabilis ATCC 12453): 0.03 µg/mL (≈ 0.0207 µM); MIC ([10]; ATCC9027, read-out: MIC P. aeruginosa ATCC 9027): 0.49 µg/mL (≈ 0.338 µM); MIC ([4]; ATCC25923, read-out: MIC S. aureus ATCC 25923): 0.98 µg/mL (≈ 0.676 µM); MIC ([5]; ATCC12228, read-out: MIC S. epidermidis ATCC 12228): 0.98 µg/mL (≈ 0.676 µM)
